Results: patent US5763457A, “Method for treating anxiety” (Eli Lilly and Company, priority 1996, dated 1998)
Like-named read-outs stand apart in the source and are kept apart here.

Key:
[1] = target: T1, muscarinic receptors (M1 -site, pirenzepine sensitive site) (Rattus norvegicus, UniProt P08482); test: inhibition of ^3 HPRZ (pirenzepine, [N-methyl-^3 H]) binding to rat cerebral cortex membranes; conditions: ^3 HPRZ 1.0 nM, 60 min, 20° C.
T1 construct: from tissue; host or cells: fresh cerebral cortex membranes, male Wistar rat
T1 sequence (P08482 1-460): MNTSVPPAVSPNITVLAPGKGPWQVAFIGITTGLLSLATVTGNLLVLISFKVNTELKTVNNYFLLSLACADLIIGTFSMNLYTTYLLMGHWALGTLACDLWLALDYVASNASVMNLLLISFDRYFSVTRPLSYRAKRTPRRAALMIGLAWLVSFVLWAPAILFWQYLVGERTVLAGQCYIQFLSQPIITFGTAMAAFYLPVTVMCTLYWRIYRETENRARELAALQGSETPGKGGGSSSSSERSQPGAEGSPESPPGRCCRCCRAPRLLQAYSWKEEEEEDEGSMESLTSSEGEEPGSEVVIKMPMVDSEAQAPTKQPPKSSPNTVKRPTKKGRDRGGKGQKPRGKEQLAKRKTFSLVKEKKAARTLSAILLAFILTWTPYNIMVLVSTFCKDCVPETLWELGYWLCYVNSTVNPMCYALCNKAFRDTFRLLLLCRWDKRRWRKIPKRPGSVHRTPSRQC
Method: Furthermore the pharmacological properties of the compounds of the invention can also be illustrated by determining their capability to inhibit ^3 HPRZ (pirenzepine, [N-methyl-^3 H]) binding to rat cerebral cortex membranes.
Pirenzepine binds selectively to subtype of muscarinic receptors. Historically the type is named the M1 -site, whereas pirenzepine sensitive site would be more appropriate.
(§1) All preparations are performed at 0°-4° C. unless otherwise indicated. Fresh cortex (0.1-1 9) from male Wistar rats (150-200 g) is homogenized for 5-10 s in 10 mL 20 mM Hepes pH: 7.4, with an Ultra-Turrax homogenizer. The homogenizer is rinsed with 2×10 mL of buffer and the combined suspension centrifuged for 15 min. at 40,000×g. The pellet is washed three times with buffer. In each step the pellet is homogenized as before in 3×10 mL of buffer and centrifuged for 10 min. at 40,000×g.
The final pellet is homogenized in 20 mM Hepes pH: 7.4 (100 mL per g of original tissue) and used for binding assay. Aliquots of 0.5 mL is added 20 μL of test solution and 25 μL of ^3 HPRZ (1.0 nM, final conc.), mixed and incubated for 60 min. at 20° C. Non-specific binding is determined in triplicate using atropine (1.0 μg/mL, final conc.) as the test substance. After incubation samples are added 5 mL of ice-cold buffer and poured directly onto Whatman GF/C glass fiber filters under suction and immediately washed 2 times with 5 mL of ice-cold buffer. The amount of radioactivity on the filters are determined by conventional liquid scintillation counting. Specific binding is total binding minus non-specific binding.
Test substances are dissolved in 10 mL water, at a concentration of 0.22 mg/mL. 25-75% inhibition of specific binding must be obtained before calculation of IC50.
The test value will be given as IC50 (the concentration (nM) of the test substance which inhibits the specific binding of ^3 HPRZ by 50%). IC50 =(applied test substance concentration) x(Cx /Co -Cx)nM where Co is specific binding in control assays and Cx is the specific binding in the test assay. (The calculations assume normal mass-action kinetics).

[2] = target: muscarinic acetylcholine receptors; test: inhibition of specific binding of ^3 H-Oxotremorine-M (^3 H-Oxo); conditions: ^3 H-Oxotremorine 1.0 nM, rat cortex, 30 min, 25° C.
Text: The pharmacological properties of the compounds of the invention can be illustrated by determining their capability to inhibit the specific binding of ^3 H-Oxotremorine-M (^3 H-Oxo). Birdsdall N. J. M., Hulme E. C., and Burgen A. S. V. (1980). "The Character of Muscarinic Receptors in Different Regions of the Rat Brain". Proc. Roy. Soc. London (Series B) 207,1.
^3 H-Oxo labels muscarinic receptor in the CNS (with a preference for agonist domains of the receptors). Three different sites are labeled by ^3 H-Oxo. […] Using the present experimental conditions only the high and medium affinity sites are determined.
The inhibitory effects of compounds on ^3 H-oxo binding reflects the affinity for muscarinic acetylcholine receptors.
as §1, with “g)” for “9)”, “(150-250” for “(150-200”, “[…]” for “mM”, “10” for “2×10”, “2×10” for “3×10”
The final pellet is homogenized in […] Hepes pH: 7.4 (100 mL per g of original tissue) and used for binding assay. Aliquots of 0.5 mL is added 25 μL of test solution and 25 μL of ^3 H-Oxotremorine (1.0 nM, final concentration) mixed and incubated for 30 min. at 25° C. Non-specific binding is determined in triplicate using arecoline (1 μg/mL, final concentration) as the test substance. After incubation samples are added 5 mL of ice-cold buffer and poured directly onto Whatman GF/C glass fiber filters under suction and immediately washed 2 times with 5 mL of ice-cold buffer. The amount of radioactivity on the filters are determined by conventional liquid scintillation counting. Specific binding is total binding minus non specific binding.
Test substances are dissolved in 10 mL water (if necessary heated on a steam-bath for less than 5 min.) at a concentration of 2.2 mg/mL. 25-75% inhibition of specific binding must be obtained before calculation of IC50. The test value will be given as IC50 (the concentration (nM) of the test substance which inhibits the specific binding of ^3 H-oxo by 50%). IC50 =(applied test substance concentration) x([…])nM where Co is specific binding in control assays and Cx is the specific binding in the test assay. (The calculations assume normal mass-action kinetics).

[3] = in vivo; cited from earlier work
[4] = target: muscarinic receptor in the CNS; conditions: cited from earlier work
[5] = tested on: dopamine receptors; conditions: literature; cited from earlier work
[6] = tested on: 5-HT1A receptor; conditions: literature; cited from earlier work
[7] = tested on: M2 -sites; conditions: cited from earlier work
[8] = tested on: M1 -sites; conditions: cited from earlier work

Structure (SMILES): CCSc1nccnc1OC1CN2CCC1CC2 (racemic) [Compound 14]
- IC50 [1]: 21 nM

Structure (SMILES): CCCCOc1nccnc1OC1CN2CCC1CC2 (racemic) [Compound 3]
- IC50 [1]: 14.5 nM
- IC50 [2]: 19.3 nM

Structure (SMILES): c1cnc(OC2CN3CCC2CC3)cn1 (racemic) [Compound 8]
- IC50 [1]: > 1000 nM

Structure (SMILES): CCCSc1nccnc1O[C@H]1CN2CCC[C@@H]1C2 (relative stereo) [Compound 29]
- IC50 [1]: 0.68 nM

Structure (SMILES): CCCC(C)(COC(N)=O)COC(N)=O [meprobamate]
- side effects [3]: numerous side effects such as potential for abuse and addiction or potentiation of the effects of ethanol

Structure (SMILES): c1cnc(O[C@H]2CN3CCC[C@@H]2C3)cn1 [Compound 21]
- IC50 [1]: 123 nM

Structure (SMILES): C/C=C/CSc1nccnc1O[C@H]1CN2CCC[C@@H]1C2 (relative stereo) [Compound 34]
- IC50 [1]: 0.66 nM

Structure (SMILES): CCOc1nccnc1OC1CN2CCC1CC2 (racemic) [Compound 11]
- IC50 [1]: 53 nM

Structure (SMILES): C(=Cc1ccccc1)CSc1nccnc1O[C@H]1CN2CCC[C@@H]1C2 (relative stereo) [Compound 42]
- IC50 [1]: 4.8 nM

Structure (SMILES): CCCSc1nccnc1OC1CN2CCC1CC2 (racemic) [Compound 15]
- IC50 [1]: 13 nM

Structure (SMILES): CCCCCSc1nccnc1O[C@H]1CN2CCC[C@@H]1C2 (relative stereo) [Compound 30]
- IC50 [1]: 0.82 nM

Structure (SMILES): CN1CCC[C@H]1COc1cnccn1 [Compound 28]
- IC50 [1]: 5710 nM

Structure (SMILES): Clc1nccnc1OC1CN2CCC1CC2 (racemic) [Compound 2]
- IC50 [1]: 253 nM
- IC50 [2]: 374 nM

Structure (SMILES): CCCCCCSc1nccnc1OC1CN2CCC1CC2 (racemic) [Compound 12]
- IC50 [1]: 13 nM

Structure (SMILES): CCCCSc1nccnc1OCC[N+](C)(C)C [Compound 18]
- IC50 [1]: 5.4 nM

Structure (SMILES): Clc1nccnc1O[C@H]1CN2CCC[C@@H]1C2 (relative stereo) [Compound 19]
- IC50 [1]: 108 nM

Structure (SMILES): CCCCOc1nccnc1O[C@H]1CN2CCC[C@@H]1C2 (relative stereo) [Compound 23]
- IC50 [1]: 2.7 nM

Structure (SMILES): FC(F)(F)CCCSc1nccnc1O[C@H]1CN2CCC[C@@H]1C2 (relative stereo) [Compound 35]
- IC50 [1]: 0.54 nM

Structure (SMILES): COc1nccnc1OC1CN2CCC1CC2 (racemic) [Compound 10]
- IC50 [1]: 223 nM

Structure (SMILES): CC(C)CCSc1nccnc1O[C@H]1CN2CCC[C@@H]1C2 (relative stereo) [Compound 37]
- IC50 [1]: 0.76 nM

Structure (SMILES): Clc1cncc(O[C@H]2CN3CCC[C@@H]2C3)n1 (relative stereo) [Compound 22]
- IC50 [1]: 52 nM

Structure (SMILES): CCCOc1nccnc1OC1CN2CCC1CC2 (racemic) [Compound 4]
- IC50 [1]: 21 nM
- IC50 [2]: 25 nM

Structure (SMILES): FC(F)(F)CSc1nccnc1O[C@H]1CN2CCC[C@@H]1C2 (relative stereo) [Compound 33]
- IC50 [1]: 0.7 nM

Structure (SMILES): CCCCCSc1nccnc1OC1CN2CCC1CC2 (racemic) [Compound 7]
- IC50 [1]: 6.7 nM

Structure (SMILES): CCCCCCOc1nccnc1OC1CN2CCC1CC2 (racemic) [Compound 5]
- IC50 [1]: 32 nM
- IC50 [2]: 40 nM

Structure (SMILES): CCCCCCCSc1nccnc1OC1CN2CCC1CC2 (racemic) [Compound 16]
- IC50 [1]: 23 nM

Structure (SMILES): CC(C)=CCCSc1nccnc1O[C@H]1CN2CCC[C@@H]1C2 (relative stereo) [Compound 43]
- IC50 [1]: 2.2 nM

Structure (SMILES): C[N+](C)(C)CC#CCN1CCCC1=O [^3 H-Oxo, ^3 H-Oxotremorine-M]
- Kd ([4]; first (high affinity) site): 1.8 nM
- Kd ([4]; second (medium affinity) site): 20 nM
- Kd ([4]; third site, not determined under present conditions, read-out: affinity): 3000 nM

Structure (SMILES): O=C1CC2(CCCC2)CC(=O)N1CCCCN1CCN(c2ncccn2)CC1 [Buspirone]
- receptor interaction [5]: interacts with reasonable potency only at the 5-HT1A and dopamine receptors
- receptor interaction [6]: interacts with reasonable potency only at the 5-HT1A and dopamine receptors

Structure (SMILES): CN(C)CCOc1cnccn1 [Compound 26]
- IC50 [1]: > 1000 nM

Structure (SMILES): CCCSc1cncc(O[C@H]2CN3CCC[C@@H]2C3)n1 (relative stereo) [Compound 39]
- IC50 [1]: 80 nM

Structure (SMILES): FC(F)(F)CSc1cncc(O[C@H]2CN3CCC[C@@H]2C3)n1 (relative stereo) [Compound 40]
- IC50 [1]: 17 nM

Structure (SMILES): CN1[C@@H]2CC[C@H]1C[C@@H](Oc1cnccn1)C2 [Compound 25]
- IC50 [1]: 680 nM

Structure (SMILES): C[N+](C)(C)CCOc1cnccn1 [Compound 27]
- IC50 [1]: > 1000 nM

Structure (SMILES): CSc1nccnc1OC1CN2CCC1CC2 (racemic) [Compound 13]
- IC50 [1]: 42 nM

Structure (SMILES): CCCCSc1nccnc1OC1CN2CCC1CC2 (racemic) [Compound 6]
- IC50 [1]: 0.9 nM
- IC50 [2]: 2.5 nM

Structure (SMILES): C=CCSc1nccnc1O[C@H]1CN2CCC[C@@H]1C2 (relative stereo) [Compound 36]
- IC50 [1]: 5.8 nM

Structure (SMILES): CCCCSc1nccnc1O[C@H]1CN2CCC[C@@H]1C2 (relative stereo) [Compound 24]
- IC50 [1]: 0.54 nM

Structure (SMILES): Cc1nccnc1O[C@H]1CN2CCC[C@@H]1C2 (relative stereo) [Compound 20]
- IC50 [1]: 246 nM

Structure (SMILES): CC(C)CSc1nccnc1O[C@H]1CN2CCC[C@@H]1C2 (relative stereo) [Compound 31]
- IC50 [1]: 1.7 nM

Structure (SMILES): FC(F)(F)Oc1ccc(CSc2nccnc2O[C@H]2CN3CCC[C@@H]2C3)cc1 (relative stereo) [Compound 38]
- IC50 [1]: 3.3 nM

Structure (SMILES): COCCSc1nccnc1O[C@H]1CN2CCC[C@@H]1C2 (relative stereo) [Compound 41]
- IC50 [1]: 1.6 nM

Structure (SMILES): CCCCSc1nccnc1OCCN(C)C [Compound 17]
- IC50 [1]: 4.5 nM

Structure (SMILES): CN1CCN(CC(=O)N2c3ccccc3C(=O)Nc3cccnc32)CC1 [pirenzepine, pirenzepine, [N-methyl-^3 H]]
- interaction with M2 -sites [7]: also interact with M2 -sites
- selectivity [8]: selective for M1 -sites

Structure (SMILES): CCSc1nccnc1O[C@H]1CN2CCC[C@@H]1C2 (relative stereo) [Compound 32]
- IC50 [1]: 4 nM

Structure (SMILES): CCCCOc1nonc1OC1CN2CCC1CC2 (racemic) [Compound 1]
- IC50 [1]: 56 nM
- IC50 [2]: 81 nM

Structure (SMILES): CCCCCOc1nccnc1OC1CN2CCC1CC2 (racemic) [Compound 9]
- IC50 [1]: 30 nM
